Here are results for seven molecules from patent US20010033854A1, “Anti-microbial compositions” (priority 2000, published 2001).

Assay [1] has as its system relevant micro-organism. The note with it: cited from earlier work.
Assay [2] relates to Staphlococcus epidermidis. The experiment in a line: Growth inhibition of a relevant micro-organism by chelator. The settings on record: chelator at 3×10^−6 mol.dm^−3 or less. Format: cell-based. From the text:
Inhibition is considered significant when growth of the relevant micro-organism on a supporting medium can be reduced by at least 30% preferably by at least 45%.

Structures are written as SMILES. Read-outs that look alike come from different tables or passages of the source.

On to `Oc1cc(Cl)ccc1Oc1ccc(Cl)cc1Cl` [triclosan, 2′,4,4′-trichloro-2′-hydroxydiphenyl ether], for which the MIC in assay [1] (literature values) was 0.01 to 10 µg/mL.

Regarding `O=C(O)CN(CC(=O)O)[C@@H]1CCCC[C@H]1N(CC(=O)O)CC(=O)O` (relative stereo) [CDTA, trans-1,2-diaminocyclohexane-N,N,N′,N′-tetraacetic acid], the “Significant inhibition of growth (reduced by at least 30%)” value in assay [2] is “exclude”.

As for `CCO` [ethanol], the MIC entry in assay [1] (ethanol and similar alkanols) was “greater than 1 mg.ml^−1”.

Regarding `O=C(O)CN(CCN(CCN(CC(=O)O)CC(=O)O)CC(=O)O)CCN(CC(=O)O)CC(=O)O` [TTHA, triethylenetetraaminehexaacetic acid], in assay [2], the “Significant inhibition of growth (reduced by at least 30%)” value was “capable of achieving significant inhibition”.

Take `O=C(O)CN(CCN(CC(=O)O)CC(=O)O)CCN(CC(=O)O)CC(=O)O` [DTPA, diethylenetriaminepentaacetic acid]: the “Significant inhibition of growth (reduced by at least 30%)” value in assay [2] was “capable of achieving significant inhibition”.

For `O=C(O)CN(CCN(CC(=O)O)CC(=O)O)CC(=O)O` [EDTA, ethylenediaminetetraacetic acid], the “Significant inhibition of growth (reduced by at least 30%)” value in assay [2] is reported as “exclude”.

Turning to `CC(C)=CCCC(C)=CCCC(C)=CCO` [farnesol, 3,7,11-trimethyldodeca-2,6,10-trienol], in assay [1] (literature values), the MIC entry is “ca. 25 μg.ml^−1”.

What is called MIC is the lowest concentration found to suppress growth.
